How the values were obtained:
[1] = Alternate cis-trans photoisomerization, durability against reversible photoisomerization (absorbance 420 nm); format: physicochemical; details: 25 μM in methanol, alternate 420 nm / 550 nm, each 20 seconds, 30 cycles
Description: A stock solution was prepared by dissolving the trans-8-phenylazoguanosine obtained in (3-1) in methanol so that the trans-8-phenylazoguanosine presented at a concentration of 25 μM in the stock solution. In a quartz cell measuring 1 cm per side was placed 200 μl out of the stock solution. The quartz cell was alternately irradiated with visible light having wavelength of 420 nm and with visible light having a wavelength of 550 nm, each for 20 seconds, in a dark place. While this process was repeated in 30 cycles, an absorbance (420 nm) was measured. From the result of the measurement, durability of the compound against reversible photoisomerization was assessed. MAX-301 manufactured by Asahi Spectra Co., Ltd. was used as a light source, and M.C.420/10 nm and M.C.550/10 nm manufactured by the same manufacturer were used as filters.

[2] = Photoisomerization reaction assessed by time-dependent changes of absorption spectra; format: physicochemical; details: 25 μM in methanol, dark place; for photoisomerization from trans form to cis form: visible light of 420 nm; for photoisomerization from cis form to trans form: visible light of 550 nm
Description: A stock solution was prepared by dissolving the 8-phenylazoguanosine obtained in (3-1) in methanol so that the 8-phenylazoguanosine presented at a concentration of 25 μM in the stock solution. In a quartz cell measuring 1 cm per side was placed 200 μl out of the stock solution thus prepared. The quartz cell was irradiated with visible light having a wavelength of 420 nm in a dark place, so that photoisomerization of the trans-8-phenylazoguanosine was assessed by measuring time-dependent changes of absorption spectra of the 8-phenylazoguanosine. In this assessment, MAX-301 manufactured by Asahi Spectra Co., Ltd. was used as a light source, and M.C.420/10 nm manufactured by the same manufacturer was used as a filter. As shown in FIG. 4 (in the upper part), along with trans to cis photoisomerization of the trans-8-phenylazoguanosine, a peak of an absorbance at 420 nm decreased, and an absorbance at 500 to 600 nm increased.
Out of the stock solution prepared in (3-2-1), 200 μl of stock solution was isomerized to the cis form as described previously, after which the resulting product was placed in a quartz cell measuring 1 cm per side. The quartz cell was irradiated with visible light having a wavelength of 550 nm in a dark place, so that photoisomerization of cis-8-phenylazoguanosine was assessed by measuring time-dependent changes of absorption spectrum of the 8-phenylazoguanosine. […] As shown in FIG. 4 (in the lower part), along with trans photoisomerization of the cis-8-phenylazoguanosine, a peak of an absorbance at 420 nm increased, and an absorbance at 500 to 600 nm decreased.
A stock solution was prepared by dissolving the trans-8-(p-toluoylazo)guanosine obtained in (4-1) in methanol so that the trans-8-(p-toluoylazo) guanosine presented at a concentration of 25 μM in the stock solution. […] The quartz cell was irradiated with visible light having a wavelength of 420 nm in a dark place, so that photoisomerization of the trans-8-(p-toluoylazo)guanosine was assessed by measuring time-dependent change of absorption spectra of the trans-8-(p-toluoylazo)guanosine. […] As shown in FIG. 6 (in the upper part), along with cis photoisomerization of the trans-8-(p-toluoylazo)guanosine, a peak of an absorbance at 420 nm decreased, and an absorbance at 500 to 600 nm increased.
Out of the stock solution prepared in (4-2-1), 200 μl of stock solution was isomerized to the cis form as described previously, after which the resulting product was placed in a quartz cell measuring 1 cm per side. The quartz cell was irradiated with visible light having a wavelength of 550 nm in a dark place, so that photoisomerization of cis-8-(p-toluoylazo) guanosine was assessed by measuring time-dependent changes of absorption spectrum of the cis-8-(p-toluoylazo)guanosine. […]

Compound	photoisomerization from trans form to cis form [2]	photoisomerization from cis form to trans form [2]	other results
trans-8-phenylazoguanosine	–	–	durability against reversible photoisomerization (decomposition, side-reaction) [1]: no decomposition and side-reaction; trans to cis and cis to trans photoisomerizations on alternate irradiation [1]: alternately took place
Cc1ccc(/N=N/c2nc3c(=O)[nH]c(N)nc3n2[C@@H]2O[C@H](CO)[C@H](O)C2O)cc1 (stereo partly drawn)	photoisomerized nearly completely to the cis form	–	–
Nc1nc2c(nc(/N=N\c3ccccc3)n2[C@@H]2O[C@H](CO)[C@H](O)C2O)c(=O)[nH]1 (stereo partly drawn) [cis-8-phenylazoguanosine]	–	photoisomerized nearly completely to the trans form	–
Cc1ccc(/N=N\c2nc3c(=O)[nH]c(N)nc3n2[C@@H]2O[C@H](CO)[C@H](O)C2O)cc1 (stereo partly drawn)	–	photoisomerized nearly completely to the trans form	–
Nc1nc2c(nc(/N=N/c3ccccc3)n2[C@@H]2O[C@H](CO)[C@H](O)C2O)c(=O)[nH]1 (stereo partly drawn) [trans-8-phenylazoguanosine]	photoisomerized nearly completely to the cis form	–	–
